Test results published in article PMC6271717, “Chemical Composition, Biological and Cytotoxic Activities of Plant Extracts and Compounds Isolated from Ferula lutea” (Molecules, 2014).
≈ marks a conversion by molar mass, not a printed value.

Key:
[1] = system: Staphylococcus aureus ATCC 25923; assay: Antibacterial activity, broth microdilution; type: cell-based; settings: ATCC25923, positive control
Experimental: (§1) The MIC values for the antibacterial and anticandidal screening were determined with the broth dilution method (microdilution using 96-well microplates) following the procedure described by Cintia et al. [35]. Briefly, all samples were prepared at a concentration of 10 mg/mL by dissolution of the extracts in 10% DMSO. The final concentrations of the plant samples tested ranged from 40 to 2 × 10^4 µg/mL. The MIC of each sample was defined as the lowest concentration of oil that inhibited either the bacterial or candidal growth, after incubation at 37 °C for 18 to 24 h. The MBC and the MFC were determined by subculture on blood agar at 37 °C for 18 to 24 h. Thymol and gentamicin or thymol and amphotericin B were used as positive controls against the bacterial or candidal strains, respectively. […] All tests were performed in triplicate.

[2] = system: Enterococcus faecalis ATCC 29212; assay: Antibacterial activity, broth microdilution; type: cell-based; settings: ATCC29212, positive control
Experimental: as §1

[3] = system: Pseudomonas aeruginosa ATCC 27853; assay: Antibacterial activity, broth microdilution; type: cell-based; settings: ATCC27853, positive control
Experimental: (§2) The test microorganisms included the following Gram-positive bacteria: Staphylococcus aureus ATCC 25923, Enterococcus faecalis ATCC 29212; Gram-negative bacteria: Escherichia coli ATCC 25922 and Pseudomonas aeruginosa ATCC 27853 and four Candida yeasts: Candida albicans ATCC 90028, C. glabrata ATCC 90030, C. kreusei ATCC 6258 and C. parapsilosis ATCC 22019).
as §1

[4] = system: Escherichia coli ATCC 25922; assay: Antibacterial activity, broth microdilution; type: cell-based; settings: ATCC25922, positive control
Experimental: as §2, §1

[5] = system: human chronic myelogenous leukaemia cell line K562; assay: Cytotoxic activity (MTT assay); type: cell-based; settings: K562, 72 h
Experimental: Cytotoxic activity of extracts against the human chronic myelogenous leukaemia cell line K562 was estimated by the 3-(4,5-dimethylthiazol-2-yl)-2,5-diphenyltetrazolium bromide (MTT) assay of Khlifi et al.. The cells were grown in RPMI- 1640 medium supplemented with 10% faetal calf serum (Gibco, Gaithersburg, MD, USA), air and 5% CO2. The resulting blue formazan product can be measured spectrophotometrically. The MTT colorimetric assay was performed in 96-well plates. […] human chronic myelogenous leukaemia K562 cells were seeded in a 96-well plate at a concentration of 10^4 cells/well and incubated at 37 °C overnight in a 5% CO2 enriched atmosphere. Cells in exponential growth phase were incubated at 37 °C for 72 h with each tested compound at concentrations ranging from 3.12 to 400 μg/mL. After that, the medium was removed and cells were treated with MTT solution (100 μL, 0.2 mg/mL in PBS) at 37 °C for 2 h. MTT solution was then discarded and DMSO (500 μL) was added to dissolve insoluble formazan crystals. Optical density was measured at 540 nm. Each extract concentration was tested in triplicate. Doxorubicin was used as positive control.

[6] = system: Candida glabrata ATCC 90030; assay: Anticandida activity, broth microdilution; type: cell-based; settings: Nakaseomyces glabratus, ATCC90030; positive control
Experimental: as §2, §1

[7] = system: Candida parapsilosis ATCC 22019; assay: Anticandida activity, broth microdilution; type: cell-based; settings: Lodderomyces parapsilosis, ATCC22019; positive control
Experimental: as §2, §1

[8] = system: Candida albicans ATCC 90028; assay: Anticandida activity, broth microdilution; type: cell-based; settings: ATCC90028, positive control
Experimental: as §2, §1

[9] = system: Candida kreseui ATCC 6258; assay: Anticandida activity, broth microdilution; type: cell-based; settings: ATCC6258, positive control
Experimental: as §1

[10] = Antioxidant activity by DPPH assay
Experimental: Diluted methanol solutions of the samples at different concentrations (1 mL each) were mixed with 1 mL of a freshly prepared (80 µg/mL) methanol solution of DPPH. The resulted solution was incubated at 37 °C for 30 min after what the absorbance of the solution was measured at 517 nm. Lower absorbance of the reaction mixture indicates higher free radical scavenging activity. Tests were carried out in triplicate. Decrease in absorption induced by the tested sample was compared to that of the positive control ascorbic acid. The capability to scavenge the DPPH^.radical was calculated using the following equation: Inhibition ratio (DPPH^. scavenging effect) (%) = [(Acontrol − Asample) / Acontrol] × 100 (1)
The IC50 was calculated using the linear relation between the compound concentration and the probability of the percentage of DPPH inhibition.

[11] = Antioxidant activity by ABTS assay
Experimental: ABTS was dissolved in water to a 7 mM concentration and the ABTS radical cation was produced by adding potassium persulfate to a final concentration of 2.45 mM [31]. The radical generation was completed in the dark at room temperature for 12 h. This solution was then diluted with methanol to adjust its absorbance at 734 nm to 0.706 ± 0.009. To determine the scavenging activity, 1 mL of diluted ABTS^+. solution was added to 1 mL of methanolic solutions of extract at different concentrations and the absorbance at 734 nm was measured 10 min after the initial mixing, using methanol as the blank. The percentage of inhibition was calculated by the equation: [(Acontrol − Asample)/Acontrol] × 100 (2) where Acontrol is the absorbance of the control reaction containing all reagents except the tested sample, and Asample is the absorbance of the test compound. Tests were carried out in triplicate. Ascorbic acid was used as the positive control. The IC50 was calculated using linear relation between the compound concentration and probability of the percentage of ABTS inhibition.

CNC(C)C1CCC(N)C(OC2C(N)CC(N)C(OC3OCC(C)(O)C(NC)C3O)C2O)O1 (stereo not shown) [Gentamecin, gentamicin]
MBC [1]: 0.15 µg/mL (≈ 0.314 µM) | MBC [2]: 0.01 µg/mL (≈ 0.0209 µM) | MBC [3]: 0.5 µg/mL (≈ 1.05 µM) | MBC [4]: 0.01 µg/mL (≈ 0.0209 µM)

COc1cccc2c1C(=O)c1c(O)c3c(c(O)c1C2=O)C[C@@](O)(C(=O)CO)C[C@@H]3O[C@H]1C[C@H](N)[C@H](O)[C@H](C)O1 [Doxorubicin]
IC50 [5]: 0.1 µg/mL (≈ 0.184 µM)

C[C@@H]1[C@H](O)[C@@H](C)/C=C/C=C/C=C/C=C/C=C/C=C/C=C/[C@H](O[C@@H]2O[C@H](C)[C@@H](O)[C@H](N)[C@@H]2O)C[C@@H]2O[C@](O)(C[C@@H](O)C[C@@H](O)[C@H](O)CC[C@@H](O)C[C@@H](O)CC(=O)O[C@H]1C)C[C@H](O)[C@H]2C(=O)O [Amphotericin B]
MFC [6]: 0.5 µg/mL (≈ 0.541 µM) | MFC [7]: 0.5 µg/mL (≈ 0.541 µM) | MFC [8]: 0.5 µg/mL (≈ 0.541 µM) | MFC [9]: 0.5 µg/mL (≈ 0.541 µM)

Cc1ccc(C(C)C)c(O)c1 [Thymol]
MIC [1]: 0.2 µg/mL (≈ 1.33 µM) | MIC [2]: 0.6 µg/mL (≈ 3.99 µM) | MIC [3]: 1 µg/mL (≈ 6.66 µM) | MIC [4]: 0.25 µg/mL (≈ 1.66 µM) | MIC [6]: 0.16 µg/mL (≈ 1.07 µM) | MIC [7]: 0.32 µg/mL (≈ 2.13 µM) | MIC [8]: 0.13 µg/mL (≈ 0.865 µM) | MIC [9]: 0.32 µg/mL (≈ 2.13 µM)

O=C1O[C@H]([C@@H](O)CO)C(O)=C1O [Vitamin C, L-ascorbic acid]
DPPH Assay IC50 [10]: 4.4 ± 0.1 µg/mL | ABTS+ Assay IC50 [11]: 4.1 ± 0.1 µg/mL
